This experiment deals with GAP-43+ puncta. Nature of the experiment: GAP-43 immunostaining of dorsal hippocampus after neonatal HI. The format is in vivo, mouse. As to the method:
Neuronal nuclei (NeuN), growth associated protein 43 (GAP-43), synapsin I (SYN), vesicular glutamate transporter 1 (VGLUT1), Glial Fibrillary Acidic Protein (GFAP) and ionized calcium-binding adapter molecule 1 (Iba-1) were visualized in the cornu ammonis (CA) and dentate gyrus (DG) of the dorsal hippocampus by immunohistochemistry. Briefly, following heat-induced antigen retrieval with 0.01 M citrate buffer (pH 6, 0.05% Tween 20) for 3×5 min, sections were washed 3×5 min with PBS-T (0.05% Tween 20), non-specific protein binding was reduced by incubation with blocking buffer [4% normal donkey serum (NeuN and Iba-1), 1% bovine serum albumin (GAP-43 and SYN), 3% normal goat serum (VGLUT1), 2% bovine serum albumin (GFAP) in PBS-T] for 1 h at room temperature (RT). Tissue was then incubated with the primary antibody [anti-NeuN biotinylated (1:200, MAB 377B, Millipore, Mass., USA), anti-GAP-43 (1:1000, MAB347, Millipore, Mass., USA), anti-SYN (1:150, SC-7379, Santa Cruz, Calif., USA), anti-VGLUT1 (1:500, AB5905, Millipore, Mass., USA), anti-GFAP (1:200, Z0334, Dako, Stockholm, Sweden), anti-Iba-1 (1:500, 019-19741, Wako, Osaka, Japan)] in blocking buffer overnight at 4° C. One slide per staining batch was incubated only with blocking buffer without primary antibody and used as a negative control. […]
NeuN positive cells, GFAP positive relative area, as well as GAP-43, SYN, and VGLUT1 positive puncta were counted by using MetaMorph software (ver. 7.8.6, Molecular Devices, CA, USA) on confocal images obtained with a 20× (NeuN and GFAP) or 63× (GAP-43, SYN, and VGLUT1) objective (Carl Zeiss LSM 700 Laser Scanning Microscope, Jena, Germany). Iba-1 positive cell somata were counted on bright field images obtained with a 20× objective (Nikon Eclipse 80i). […]

For “C3a: Purified human C3a peptide (Complement Technologies), C3a receptor agonist, amino acid sequence SEQ ID NO: 1”, the “density of GAP-43+ puncta in CA1” value (between groups) is on record as “did not find any differences between groups”. Further, the “expression of GAP-43 in the dentate gyrus” value (mouse, in vivo) is “No effect”. Moreover, for the setting “p<0.05 for PBS”, the “average GAP-43+ punctum area in CA1 of HI injured hippocampus vs sham mice” value is reported as “PBS treated, but not C3a treated, mice was larger compared with sham mice”.

The values above are taken from patent US11266715B2, “C3A receptor agonists for use against ischemic brain injury, stroke, traumatic brain injury, spinal cord injury and neurodegenerative disorders” (priority 2016, dated 2022).
